# Values of other authors as cited in patent US8877241B2 (Egalet Ltd., priority 2003, dated 2014).
# Settings: single dose of 10 mg oral morphine, plain tablet composition
structure (smiles),measurement,value
CN1CC[C@]23c4c5ccc(O)c4O[C@H]2[C@@H](O)C=C[C@H]3[C@H]1C5 [morphine],average duration of action,4 to 5 h
